# The source made the active and inactive calls. The rule behind the calls is not given here. Positions of bridges follow the written chain, without caps; N, C: chain ends. Residues, ends and D or L forms follow the SMILES beside them.
# Assays:
# Frizzled-2 [1] = target: T1, Frizzled-2 (Homo sapiens, UniProt Q14332); assay: Antagonist activity at Wnt3a-stimulated frizzled-2 (unknown origin) expressed in human HEK293superTOP flash cells incubated for 24 hrs by luciferase reporter gene assay; type: functional, cell-based; conditions: HEK293
# Target sequence in this assay (Q14332 24-565 limits assumed): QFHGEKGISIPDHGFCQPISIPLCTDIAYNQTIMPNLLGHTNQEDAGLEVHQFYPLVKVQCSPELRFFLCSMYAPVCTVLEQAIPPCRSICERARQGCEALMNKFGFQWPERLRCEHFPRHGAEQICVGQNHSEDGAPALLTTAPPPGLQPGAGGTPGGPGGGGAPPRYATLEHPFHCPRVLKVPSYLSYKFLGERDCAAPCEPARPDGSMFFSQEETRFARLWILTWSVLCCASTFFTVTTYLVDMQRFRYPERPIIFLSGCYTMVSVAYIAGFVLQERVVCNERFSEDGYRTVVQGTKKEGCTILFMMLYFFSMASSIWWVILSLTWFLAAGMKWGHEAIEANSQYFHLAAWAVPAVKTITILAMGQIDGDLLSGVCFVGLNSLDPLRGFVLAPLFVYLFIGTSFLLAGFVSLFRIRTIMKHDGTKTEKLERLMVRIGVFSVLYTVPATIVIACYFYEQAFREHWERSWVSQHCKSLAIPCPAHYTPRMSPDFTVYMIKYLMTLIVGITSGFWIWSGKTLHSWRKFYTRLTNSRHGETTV
# [2] = target: Frizzled-1 (Homo sapiens) (UniProt Q9UP38); assay: Antagonist activity at Wnt3a-stimulated frizzled-1 (unknown origin) expressed in human HEK293superTOP flash cells incubated for 24 hrs by luciferase reporter gene assay; type: functional, cell-based; conditions: HEK293
# Frizzled-2 [3] = target: T1, Frizzled-2; assay: Agonist activity at frizzled-2 (unknown origin) expressed in human HEK293superTOP flash cells by luciferase reporter gene assay; type: functional, cell-based; conditions: hek293
# Target sequence in this assay (Q14332 whole entry): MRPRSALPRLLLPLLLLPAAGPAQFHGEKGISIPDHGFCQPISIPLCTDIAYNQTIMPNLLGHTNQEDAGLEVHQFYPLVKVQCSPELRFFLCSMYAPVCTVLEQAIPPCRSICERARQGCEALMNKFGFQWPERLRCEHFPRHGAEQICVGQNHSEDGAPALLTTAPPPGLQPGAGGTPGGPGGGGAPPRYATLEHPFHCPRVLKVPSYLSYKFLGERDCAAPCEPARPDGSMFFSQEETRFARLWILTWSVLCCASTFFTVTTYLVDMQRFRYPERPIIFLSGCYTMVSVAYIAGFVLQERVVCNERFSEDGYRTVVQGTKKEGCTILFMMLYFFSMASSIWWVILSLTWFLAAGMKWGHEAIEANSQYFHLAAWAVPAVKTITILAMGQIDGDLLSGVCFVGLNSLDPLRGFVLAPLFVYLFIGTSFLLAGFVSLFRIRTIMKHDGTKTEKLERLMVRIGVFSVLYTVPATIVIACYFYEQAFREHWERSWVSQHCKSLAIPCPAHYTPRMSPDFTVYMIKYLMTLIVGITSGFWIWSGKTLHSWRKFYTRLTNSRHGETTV
# [4] = target: Frizzled-1 (Homo sapiens) (UniProt Q9UP38); assay: Agonist activity at frizzled-1 (unknown origin) expressed in human HEK293superTOP flash cells by luciferase reporter gene assay; type: functional, cell-based; conditions: HEK293
# [5] = target: Frizzled-1 (Rattus norvegicus) (UniProt Q08463); assay: Antagonist activity at Wnt3a-stimulated rat frizzled-1 expressed in CHO cells up to 10 uM incubated for 24 hrs by luciferase reporter gene assay; type: cell-based; conditions: dose microM <=10, time 24.0 hrs
# [6] = target: Frizzled-2 (Rattus norvegicus) (UniProt Q08464); assay: Antagonist activity at Wnt3a-stimulated rat frizzled-2 expressed in CHO cells up to 10 uM incubated for 24 hrs by luciferase reporter gene assay; type: cell-based; conditions: dose microM <=10, time 24.0 hrs
# [7] = target: Frizzled-1 (Rattus norvegicus) (UniProt Q08463); assay: Antagonist activity at Wnt3a-stimulated rat frizzled-1 expressed in African green monkey COS7 cells up to 10 uM incubated for 24 hrs by luciferase reporter gene assay; type: cell-based; conditions: dose microM <=10, time 24.0 hrs
# [8] = target: Frizzled-2 (Rattus norvegicus) (UniProt Q08464); assay: Antagonist activity at Wnt3a-stimulated rat frizzled-2 expressed in African green monkey COS7 cells up to 10 uM incubated for 24 hrs by luciferase reporter gene assay; type: cell-based; conditions: dose microM <=10, time 24.0 hrs
# Frizzled-2 [9] = target: T1, Frizzled-2; assay: Antagonist activity at Wnt3a-stimulated frizzled-2 (unknown origin) expressed in human HEK293superTOP flash cells at 10 nM incubated for 24 hrs by luciferase reporter gene assay; type: functional, cell-based; conditions: HEK293
# Target sequence in this assay (Q14332 24-565 limits assumed): as the sequence (Q14332 24-565 limits assumed) above
# [10] = target: Frizzled-1 (Homo sapiens) (UniProt Q9UP38); assay: Antagonist activity at Wnt3a-stimulated frizzled-1 (unknown origin) expressed in human HEK293superTOP flash cells at 10 nM incubated for 24 hrs by luciferase reporter gene assay; type: functional, cell-based; conditions: HEK293
# [11] = target: T2, Frizzled-4 (Homo sapiens) (UniProt Q9ULV1); assay: Agonist activity at frizzled-4 (unknown origin) expressed in human HEK293superTOP flash cells by luciferase reporter gene assay; type: functional, cell-based; conditions: HEK293
# T2 sequence (whole entry): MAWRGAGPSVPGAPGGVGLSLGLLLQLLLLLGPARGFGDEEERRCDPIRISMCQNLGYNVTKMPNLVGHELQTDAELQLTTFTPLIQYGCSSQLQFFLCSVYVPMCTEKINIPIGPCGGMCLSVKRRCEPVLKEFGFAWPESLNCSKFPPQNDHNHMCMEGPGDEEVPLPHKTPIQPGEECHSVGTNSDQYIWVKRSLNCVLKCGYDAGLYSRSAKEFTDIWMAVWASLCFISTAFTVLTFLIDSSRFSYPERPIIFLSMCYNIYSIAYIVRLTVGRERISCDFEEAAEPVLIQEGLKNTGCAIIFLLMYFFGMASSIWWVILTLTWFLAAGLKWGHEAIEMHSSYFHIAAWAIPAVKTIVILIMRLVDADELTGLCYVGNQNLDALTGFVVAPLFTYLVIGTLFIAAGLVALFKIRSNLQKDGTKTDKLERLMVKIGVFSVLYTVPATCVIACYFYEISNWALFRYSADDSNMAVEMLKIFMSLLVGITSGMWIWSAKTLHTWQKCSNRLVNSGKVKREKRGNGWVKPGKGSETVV
# [12] = target: Frizzled-5 (Homo sapiens) (UniProt Q13467); assay: Agonist activity at frizzled-5 (unknown origin) expressed in human HEK293superTOP flash cells by luciferase reporter gene assay; type: functional, cell-based; conditions: HEK293
# [13] = target: Frizzled-1 (Rattus norvegicus) (UniProt Q08463); assay: Agonist activity at rat frizzled-1 expressed in human HEK293superTOP flash cells by luciferase reporter gene assay; type: cell-based; conditions: HEK293
# [14] = target: Frizzled-2 (Rattus norvegicus) (UniProt Q08464); assay: Agonist activity at rat frizzled-2 expressed in human HEK293superTOP flash cells by luciferase reporter gene assay; type: cell-based; conditions: HEK293
# [15] = target: Frizzled-1 (Rattus norvegicus) (UniProt Q08463); assay: Agonist activity at rat frizzled-1 expressed in CHO cells by luciferase reporter gene assay; type: cell-based
# [16] = target: Frizzled-2 (Rattus norvegicus) (UniProt Q08464); assay: Agonist activity at rat frizzled-2 expressed in CHO cells by luciferase reporter gene assay; type: cell-based
# [17] = target: Frizzled-1 (Rattus norvegicus) (UniProt Q08463); assay: Agonist activity at rat frizzled-1 expressed in African green monkey COS7 cells by luciferase reporter gene assay; type: cell-based
# [18] = target: Frizzled-2 (Rattus norvegicus) (UniProt Q08464); assay: Agonist activity at rat frizzled-2 expressed in African green monkey COS7 cells by luciferase reporter gene assay; type: cell-based
# Frizzled-1 (Homo sapiens), sequence (Q9UP38 70-647 limits assumed): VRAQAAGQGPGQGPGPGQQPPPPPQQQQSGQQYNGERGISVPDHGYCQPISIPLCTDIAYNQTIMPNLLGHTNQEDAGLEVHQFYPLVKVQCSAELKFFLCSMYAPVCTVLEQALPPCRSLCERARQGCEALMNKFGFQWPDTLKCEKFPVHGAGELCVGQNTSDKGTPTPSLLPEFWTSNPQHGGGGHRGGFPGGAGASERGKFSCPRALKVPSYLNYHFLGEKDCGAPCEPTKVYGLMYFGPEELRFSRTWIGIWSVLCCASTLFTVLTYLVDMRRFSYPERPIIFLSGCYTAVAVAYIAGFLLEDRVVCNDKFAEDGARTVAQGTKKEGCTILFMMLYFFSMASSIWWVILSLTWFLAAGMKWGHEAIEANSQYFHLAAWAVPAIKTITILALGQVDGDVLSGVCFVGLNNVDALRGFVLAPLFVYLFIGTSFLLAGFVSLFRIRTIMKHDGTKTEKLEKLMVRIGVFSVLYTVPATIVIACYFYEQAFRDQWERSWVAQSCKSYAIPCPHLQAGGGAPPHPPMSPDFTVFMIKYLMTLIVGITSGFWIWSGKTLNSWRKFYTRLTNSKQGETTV
# Frizzled-2 (Rattus norvegicus), sequence (Q08464 29-570 limits assumed): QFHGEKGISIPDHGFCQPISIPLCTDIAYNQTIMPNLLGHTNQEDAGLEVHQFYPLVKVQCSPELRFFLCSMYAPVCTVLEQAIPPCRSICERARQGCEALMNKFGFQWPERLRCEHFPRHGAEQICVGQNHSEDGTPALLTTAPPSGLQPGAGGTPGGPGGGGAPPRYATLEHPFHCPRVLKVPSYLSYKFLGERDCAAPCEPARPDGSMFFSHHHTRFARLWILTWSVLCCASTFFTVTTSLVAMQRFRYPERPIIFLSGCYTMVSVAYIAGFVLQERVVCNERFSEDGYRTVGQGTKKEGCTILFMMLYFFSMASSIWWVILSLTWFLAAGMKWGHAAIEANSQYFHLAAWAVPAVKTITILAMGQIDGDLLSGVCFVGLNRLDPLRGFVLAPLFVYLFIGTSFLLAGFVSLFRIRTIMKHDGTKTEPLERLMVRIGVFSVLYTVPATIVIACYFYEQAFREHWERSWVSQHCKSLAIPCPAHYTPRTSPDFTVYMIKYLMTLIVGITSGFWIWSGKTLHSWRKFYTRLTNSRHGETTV
# Frizzled-1 (Rattus norvegicus), sequence (Q08463 whole entry): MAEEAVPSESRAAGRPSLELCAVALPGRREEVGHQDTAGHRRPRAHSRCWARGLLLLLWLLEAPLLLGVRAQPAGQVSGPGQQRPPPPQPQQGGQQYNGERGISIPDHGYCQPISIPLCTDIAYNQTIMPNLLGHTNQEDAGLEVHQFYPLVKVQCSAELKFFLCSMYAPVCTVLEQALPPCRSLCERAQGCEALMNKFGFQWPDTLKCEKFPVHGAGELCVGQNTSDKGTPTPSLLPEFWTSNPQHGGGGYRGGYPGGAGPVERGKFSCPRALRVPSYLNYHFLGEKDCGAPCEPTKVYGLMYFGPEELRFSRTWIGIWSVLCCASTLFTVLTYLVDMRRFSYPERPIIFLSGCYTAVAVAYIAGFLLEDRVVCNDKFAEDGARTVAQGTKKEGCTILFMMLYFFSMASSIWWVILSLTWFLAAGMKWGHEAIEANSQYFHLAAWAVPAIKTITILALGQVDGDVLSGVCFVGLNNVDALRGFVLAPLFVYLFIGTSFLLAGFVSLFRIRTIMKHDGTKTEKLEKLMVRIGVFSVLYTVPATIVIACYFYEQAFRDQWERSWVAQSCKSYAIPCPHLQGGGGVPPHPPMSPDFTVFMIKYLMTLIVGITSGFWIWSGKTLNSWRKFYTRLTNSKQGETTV
# Frizzled-5 (Homo sapiens), sequence (Q13467 whole entry): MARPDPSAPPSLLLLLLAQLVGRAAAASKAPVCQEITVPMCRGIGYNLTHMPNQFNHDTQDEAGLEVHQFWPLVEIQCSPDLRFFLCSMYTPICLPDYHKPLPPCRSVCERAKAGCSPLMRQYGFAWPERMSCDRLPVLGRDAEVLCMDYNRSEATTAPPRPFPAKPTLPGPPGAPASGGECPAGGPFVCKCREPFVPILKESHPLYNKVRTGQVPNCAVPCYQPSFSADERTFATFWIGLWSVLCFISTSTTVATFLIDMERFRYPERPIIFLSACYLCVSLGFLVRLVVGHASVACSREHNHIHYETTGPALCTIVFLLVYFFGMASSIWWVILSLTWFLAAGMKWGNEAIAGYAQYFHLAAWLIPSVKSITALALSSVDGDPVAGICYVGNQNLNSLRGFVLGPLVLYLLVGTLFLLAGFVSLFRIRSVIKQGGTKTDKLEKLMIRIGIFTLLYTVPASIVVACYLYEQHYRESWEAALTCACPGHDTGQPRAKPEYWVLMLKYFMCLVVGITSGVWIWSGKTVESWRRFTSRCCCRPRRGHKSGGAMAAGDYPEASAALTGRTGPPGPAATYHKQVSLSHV
Structure (SMILES),inhibition (Frizzled-2 [1]),inhibition [2],EC50 (Frizzled-2 [3]),Activity [4],also measured
CC(=O)N[C@@H](CS)C(=O)N[C@@H](CCCCN)C(=O)N[C@@H](CS)C(=O)N[C@@H](Cc1cnc[nH]1)C(=O)NCC(=O)N[C@H](C(=O)N[C@@H](CO)C(=O)NCC(=O)N[C@@H](CO)C(=O)N[C@@H](CS)C(=O)N[C@H](C(=O)N[C@H](C(=O)N[C@@H](CCCCN)C(=O)N[C@H](C(=O)N[C@@H](CS)C(=O)N[C@@H](Cc1c[nH]c2ccccc12)C(N)=O)[C@@H](C)O)C(C)C)[C@@H](C)O)C(C)C (Ac-CKCHGVSGSCTVKTCW-NH2),inactive,inactive,Not Active,inactive,–
CSCC[C@H](NC(=O)CNC(=O)[C@H](CCC(=O)O)NC(=O)[C@H](CO)NC(=O)[C@@H](NC(=O)[C@H](CCCCN)NC(=O)[C@H](CC(N)=O)NC(=O)[C@H](CS)NC(C)=O)[C@@H](C)O)C(=O)N[C@@H](CC(=O)O)C(=O)NCC(=O)N[C@@H](CS)C(=O)N[C@@H](CCC(=O)O)C(=O)N[C@@H](C)C(N)=O (Ac-CNKTSEGMDGCEA-NH2),–,–,–,–,inhibition [5]: inactive; inhibition [6]: inactive; inhibition [7]: inactive; inhibition [8]: inactive; inhibition (Frizzled-2 [9]): inactive; inhibition [10]: inactive
CSCC[C@@H]1NC(=O)CNC(=O)[C@H](CCC(=O)O)NC(=O)[C@H](CO)NC(=O)[C@H]([C@@H](C)O)NC(=O)[C@H](CCCCN)NC(=O)[C@H](CC(N)=O)NC(=O)[C@@H](NC(C)=O)CSSC[C@@H](C(=O)N[C@@H](CCC(=O)O)C(=O)N[C@@H](CC(C)C)C(N)=O)NC(=O)CNC(=O)[C@H](CC(=O)O)NC1=O (Ac-CNKTSEGMDGCEL-NH2; disulfide 1-11),–,–,–,–,Activity [11]: inactive; Activity [12]: inactive
CC(=O)N[C@@H](CC(=O)O)C(=O)N[C@@H](CC(C)C)C(=O)N[C@H](C(=O)N[C@@H](Cc1ccc(O)cc1)C(=O)N[C@@H](Cc1ccccc1)C(=O)N[C@@H](CCC(=O)O)C(=O)N[C@@H](CC(C)C)C(=O)N[C@@H](CO)C(=O)N1CCC[C@H]1C(=O)N[C@@H](CC(=O)O)C(=O)N[C@@H](Cc1ccccc1)C(=O)N[C@@H](CS)C(=O)N[C@@H](C)C(N)=O)C(C)C (Ac-DLVYFELSPDFCA-NH2),inactive,inactive,Not Active,inactive,–
CC[C@H](C)[C@H](NC(=O)[C@H](CC(N)=O)NC(=O)[C@H](CC(=O)O)NC(=O)[C@H](CO)NC(=O)[C@H](CS)NC(=O)[C@H](CCC(=O)O)NC(=O)CNC(=O)[C@H](Cc1c[nH]c2ccccc12)NC(=O)[C@H](CCC(=O)O)NC(=O)[C@H](Cc1c[nH]c2ccccc12)NC(=O)[C@H](CC(=O)O)NC(=O)CNC(C)=O)C(N)=O (Ac-GDWEWGECSDNI-NH2),inactive,inactive,Not Active,inactive,–
CC[C@H](C)[C@H](NC(=O)CNC(C)=O)C(=O)N[C@@H](CCCCN)C(=O)N[C@@H](CCC(=O)O)C(=O)N[C@@H](CS)C(=O)N[C@@H](CCC(N)=O)C(=O)N[C@@H](Cc1ccc(O)cc1)C(=O)N[C@@H](CCC(N)=O)C(=O)N[C@@H](Cc1ccccc1)C(=O)N[C@@H](CCCNC(=N)N)C(=O)N[C@@H](Cc1c[nH]cn1)C(=O)N[C@@H](CCCNC(=N)N)C(=O)N[C@@H](CCCNC(=N)N)C(=O)N[C@@H](Cc1c[nH]c2ccccc12)C(=O)N[C@@H](CC(N)=O)C(=O)N[C@@H](CS)C(=O)N[C@@H](CO)C(=O)N[C@H](C(=O)N[C@H](C(=O)N[C@@H](CC(=O)O)C(N)=O)C(C)C)[C@@H](C)O (Ac-GIKECQYQFRHRRWNCSTVD-NH2),–,–,–,–,Activity [13]: inactive; Activity [14]: inactive; Activity [15]: inactive; Activity [16]: inactive; Activity [17]: inactive; Activity [18]: inactive
CC(=O)NCC(=O)N[C@@H](CO)C(=O)N[C@@H](CS)C(=O)N[C@@H](CO)C(=O)N[C@@H](CC(C)C)C(=O)N[C@@H](CCCCN)C(=O)N[C@H](C(=O)N[C@@H](CS)C(=O)N[C@@H](Cc1c[nH]c2ccccc12)C(=O)N[C@@H](CC(C)C)C(=O)N[C@@H](CCC(N)=O)C(=O)N[C@@H](CC(C)C)C(=O)N[C@@H](C)C(=O)N[C@@H](CC(=O)O)C(N)=O)[C@@H](C)O (Ac-GSCSLKTCWLQLAD-NH2),–,–,–,–,Activity [13]: inactive; Activity [14]: inactive; Activity [15]: inactive; Activity [16]: inactive; Activity [17]: inactive; Activity [18]: inactive
CC[C@H](C)[C@H](NC(C)=O)C(=O)N[C@@H](CCC(=O)O)C(=O)N[C@@H](CCC(=O)O)C(=O)N[C@@H](CS)C(=O)N[C@@H](CCC(N)=O)C(=O)N[C@@H](Cc1cnc[nH]1)C(=O)N[C@@H](CCC(N)=O)C(=O)N[C@@H](Cc1ccccc1)C(=O)N[C@@H](CCCNC(=N)N)C(=O)N[C@@H](CC(=O)O)C(=O)N[C@@H](CCCNC(=N)N)C(=O)N[C@@H](CCCNC(=N)N)C(=O)N[C@@H](Cc1c[nH]c2ccccc12)C(=O)N[C@@H](CC(N)=O)C(=O)N[C@@H](CS)C(N)=O (Ac-IEECQHQFRDRRWNC-NH2),inactive,inactive,Not Active,inactive,–
CC[C@H](C)[C@H](NC(=O)CNC(=O)[C@H](Cc1cnc[nH]1)NC(=O)[C@H](CO)NC(=O)[C@H](CO)NC(=O)[C@@H](NC(=O)[C@H](CC(N)=O)NC(=O)[C@@H](N)CS)C(C)C)C(=O)N[C@@H](CC(=O)O)C(=O)NCC(=O)N[C@@H](CS)C(=O)N[C@@H](CC(=O)O)C(=O)N[C@@H](CC(C)C)C(=O)O (H-CNVSSHGIDGCDL-OH),–,–,–,–,inhibition [5]: inactive; inhibition [6]: inactive; inhibition [7]: inactive; inhibition [8]: inactive; inhibition (Frizzled-2 [9]): inactive; inhibition [10]: inactive

# More lines, main results first:
inhibition (Frizzled-2 [1]),inhibition [2],EC50 (Frizzled-2 [3]),Activity [4],Structure (SMILES),also measured
inactive,inactive,Not Active,inactive,CSCC[C@H](NC(=O)CNC(=O)[C@H](CO)NC(=O)[C@H](CCCCN)NC(=O)[C@H](CC(N)=O)NC(=O)[C@H](CS)NC(C)=O)C(=O)N[C@@H](CC(=O)O)C(=O)NCC(=O)N[C@@H](CS)C(=O)N[C@@H](CCC(=O)O)C(=O)N[C@@H](CC(C)C)C(N)=O (Ac-CNKSGMDGCEL-NH2),–
inactive,inactive,Not Active,inactive,CC(=O)NCC(=O)N[C@@H](CO)C(=O)N[C@@H](CCCCN)C(=O)NCC(=O)N[C@H](C(=O)N[C@@H](CCC(N)=O)C(=O)NCC(=O)N[C@@H](CCCNC(=N)N)C(=O)N[C@@H](C)C(=O)N[C@@H](CS)C(=O)N[C@@H](CC(N)=O)C(N)=O)[C@@H](C)O (Ac-GSKGTQGRACN-NH2),–
inactive,inactive,Not Active,inactive,CSCC[C@H](NC(C)=O)C(=O)N[C@@H](CC(N)=O)C(=O)N[C@@H](CCCNC(=N)N)C(=O)N[C@@H](Cc1cnc[nH]1)C(=O)N[C@@H](CC(N)=O)C(=O)N[C@@H](CC(N)=O)C(=O)N[C@@H](CCC(=O)O)C(=O)N[C@@H](C)C(=O)NCC(=O)N[C@@H](CCCNC(=N)N)C(N)=O (Ac-MNRHNNEAGR-NH2),–

# Reference: ChEMBL document CHEMBL4806959, “Antagonistic peptides for frizzled-1 and frizzled-2” (2015)
